{
  "source": "patent US20220249637A1",
  "about": "“COMBINATION THERAPY OF A CELL-MEDIATED CYTOTOXIC THERAPY AND AN INHIBITOR OF A PROSURVIVAL BCL2 FAMILY PROTEIN” (Juno Therapeutics, Inc., priority 2019, published 2022)",
  "key": {"CD3+ CAR T cells": {"system": "CD3+ CAR T cells", "assay": "Delayed addition of venetoclax to RL / CAR T co-culture, CAR T cell number", "type": "cell-based", "settings": "6 days", "protocol": "RL target cells were co-cultured with CD19-targeting CAR T cells, generated substantially as described in Example 1, for 6 days in the absence or presence of the exemplary BCL2 inhibitor venetoclax (0.01 μM, 0.1 μM, or 1.0 μM). Venetoclax was added concurrently with co-culture or 24, 48, or 72 hours after the start of co-culture. As a control, RL target cells were cultured in the presence of venetoclax, but without CAR T cells.\nAfter 6 days of co-culture, the number of CD3+ CAR T cells and target cells was assessed."}, "JeKo-1 target cells": {"system": "JeKo-1 target cells", "assay": "JeKo-1 target cell co-culture for 100 hours", "type": "cell-based", "protocol": "Further, the cytolytic activity of anti-CD19 CAR T cells was not affected when co-cultured with JeKo-1 target cells for 100 hours in the presence of 1.0 μM venetoclax."}, "CD3+CAR+ T cells": {"system": "CD3+CAR+ T cells", "assay": "Co-culture of tumor cells and CAR T cells, venetoclax added at initiation or 24, 48 or 72 hours later (Example 9): CAR T cell number", "type": "cell-based", "protocol": "FIGS. 14A and 14B show the number of CD3+CAR+ T cells and RL target cells, respectively, following a 6-day co-culture. Various concentrations of an exemplary BCL2 inhibitor were provided in the co-culture at its initiation, or 24, 48, or 72 hours after the initiation of co-culture.\nThus, in some cases, the cytotoic effects of a BCL2 inhibitor, e.g. venetoclax, and a T cell therapy (e.g. CAR T cells) may be synergistic to result in cell death of cells otherwise resistant to treatment with the T cell therapy alone. In some cases, administration of the inhibitor, e.g. venetoclax, may sensitize otherwise resistant cancer cells to CAR T cell-mediated killing when it is administered within or at about 7 days after administration of the cell therapy."}, "anti-CD19 CAR T cells [1]": {"system": "anti-CD19 CAR T cells", "assay": "CAR T cell viability, ATP luciferin reporter assay after 96 hours anti-idiotypic antibody stimulation", "type": "cell-based, human", "protocol": "Anti-CD19 CAR-expressing T cell compositions were generated from three human adult donors, substantially as described in Example 1. Anti-CD19 CAR T cells were stimulated for 96 hours with an anti-idiotypic antibody in the presence of an exemplary BCL2 inhibitor venetoclax solubilized in dimethylsulfoxide (DMSO). Control anti-CD19 CAR T cells were stimulated for 96 hours with the anti-idiopathic antibody in the presence of an equal amount of DMSO. Specifically, anti-CD19 CAR-expressing cells were added to the wells of a 96-well plate that had been pre-coated with an anti-idiotypic antibody specific to the scFv of the anti-CD19 CAR-expressing T cells described in Example 1 at a concentration of 30 μg/ml. The cells were cultured in the presence of 5% human serum at 37° C. and 5% CO2. After 96 hours, cells were lysed and ATP from viable cells was detected via a luciferin reporter assay and reported as relative luminescence units. Venetoclax-treated CAR T cell counts were assessed and normalized to DMSO control CAR T cell counts."}, "anti-CD19 CAR T cells [2]": {"system": "anti-CD19 CAR T cells", "assay": "Effect of serum concentration on venetoclax IC50 against CAR T cells", "type": "cell-based", "settings": "5%, 10% or 20% serum", "protocol": "Thus, to determine whether serum concentration may modulate the effects of venetoclax on CAR T cells, anti-CD19 CAR T cells were cultured in the presence of 5%, 10%, or 20% serum and treated with increasing concentrations of venetoclax."}, "anti-CD19 CAR T cells [3]": {"system": "anti-CD19 CAR T cells", "assay": "Caspase 3 expression and expansion of CAR T cells incubated with anti-ID beads and venetoclax", "type": "cell-based", "settings": "0.01, 0.1, 1 or 10 μM, 48 hours post-stimulation", "protocol": "Anti-CD19 CAR-expressing T cell compositions from healthy donors were incubated with anti-ID antibody-coated beads at 37° C. in the presence of increasing concentrations of venetoclax (0.01 μM, 0.1 μM, 1 μM, or 10 μM) for 48 hours. As a control, CART cells were incubated under the same conditions, but without venetoclax. Caspase 3 expression, viability, and expansion kinetics of the CAR T cells were subsequently assessed."}, "[4]": {"system": "cells of the cell therapy (CAR-T cells)", "assay": "Activation induced cell death of cells of the cell therapy in presence of inhibitor", "type": "cell-based", "settings": "particularly if given at too high of a dosage", "description": "In some aspects, the provided methods, combinations and uses provide for or achieve improved or more durable responses or efficacy as compared to alternative methods, such as alternative methods involving only the administration of the immunotherapy or cell therapy but not in combination with an inhibitor of a prosurvival BCL2 family protein (e.g. venetoclax). In some embodiments, the methods are advantageous by virtue of administering an inhibitor of a prosurvival BCL2 family protein (e.g. venetoclax) shortly before (e.g. within 7 days) or concurrently with administration of an immunotherapy or a cell therapy (e.g. T cell therapy, such as CAR-T cell), thereby sensitizing the tumor and/or making the tumor less resistant to, or more susceptible to, treatment with the immunotherapy or cell therapy. […] However, delaying administration of the inhibitor of a prosurvival BCL2 family protein (e.g. venetoclax) until a time after AICD is at or has reached it peak or been reduced after having peaked can avoid detrimental effects on the cells of the cell therapy while substantially improving, e.g. synergistically increasing, T cell-mediated killing of the tumor by cells of the cell therapy (e.g. CAR-T cells)."}, "human plasma proteins": {"system": "human plasma proteins", "settings": "cited from earlier work"}},
  "data": [
    {"smiles": "CC1(C)CCC(CN2CCN(c3ccc(C(=O)NS(=O)(=O)c4ccc(NCC5CCOCC5)c([N+](=O)[O-])c4)c(Oc4cnc5[nH]ccc5c4)c3)CC2)=C(c2ccc(Cl)cc2)C1", "note": "[venetoclax]", "values": [
      {"measurement": "number of CD3+ CAR T cells", "setting": "CD3+ CAR T cells; 0.01 μM, all time points", "value": "not observed to reduce CD3+ CAR T cell number"},
      {"measurement": "number of CD3+ CAR T cells", "setting": "CD3+ CAR T cells; 0.1 μM or 1.0 μM added concurrently or 24 hours later", "value": "reduced"},
      {"measurement": "number of CD3+ CAR T cells", "setting": "CD3+ CAR T cells; added 48 or 72 hours following co-culture, any concentration", "value": "a reduction in CD3+ CAR T cells was not observed"},
      {"measurement": "cytolytic activity of anti-CD19 CAR T cells", "setting": "JeKo-1 target cells; 1.0 μM venetoclax, 100 hours", "value": "not affected"},
      {"measurement": "number of JeKo-1 target cells", "setting": "JeKo-1 target cells; venetoclax alone", "value": "not reduced"},
      {"measurement": "deleterious effects on CAR T cells", "setting": "CD3+CAR+ T cells; administered when activation-induced cell death of CAR T cells has peaked (e.g. 2-7 days after CAR T cells), Example 9", "value": "deleterious effects on CAR T cells not observed"},
      {"measurement": "deleterious effects on the CAR T cells", "setting": "CD3+CAR+ T cells; therapeutic dose administered 48 or 72 hours after initiation of co-culture", "value": "without deleterious effects on the CAR T cells being observed"},
      {"measurement": "CAR-T cell numbers and activity", "setting": "CD3+CAR+ T cells; therapeutic dose given concurrently or at 24 hours after initiation of co-culture", "value": "reduced CAR-T cell numbers and activity"},
      {"measurement": "IC50", "setting": "anti-CD19 CAR T cells [1]; T-cell, average among three donors, 5% human serum", "value": 7.9, "unit": "µM"},
      {"measurement": "percentage of viable anti-CD19 CAR-expressing T cells", "setting": "anti-CD19 CAR T cells [1]; increasing doses", "value": "decreased with increasing doses of venetoclax"},
      {"measurement": "IC50 against anti-CD19 CAR T cells", "setting": "anti-CD19 CAR T cells [2]", "value": "increase with increasing concentrations of serum"},
      {"measurement": "percentage of CAR+ T cells expressing caspase 3", "setting": "anti-CD19 CAR T cells [3]", "value": "larger percentages of CAR+ T cells expressing caspase 3"},
      {"measurement": "activation induced cell death (AICD) of cells of the cell therapy", "setting": "[4]", "value": "can exacerbate activation induced cell death (AICD)"},
      {"measurement": "plasma protein binding", "setting": "human plasma proteins", "value": "can bind human plasma proteins"}
    ]}
  ]
}
